The values below come from patent publication US7989457B2 (Eli Lilly and Company, priority 2004, dated 2011).

pKi: −log10 of the molar value.

In this test the target is cloned human glucagon receptor (Homo sapiens, UniProt P47871). Nature of the test: Glucagon Receptor (hGlucR) Binding Assay.
cloned human glucagon receptor, sequence (P47871 26-477): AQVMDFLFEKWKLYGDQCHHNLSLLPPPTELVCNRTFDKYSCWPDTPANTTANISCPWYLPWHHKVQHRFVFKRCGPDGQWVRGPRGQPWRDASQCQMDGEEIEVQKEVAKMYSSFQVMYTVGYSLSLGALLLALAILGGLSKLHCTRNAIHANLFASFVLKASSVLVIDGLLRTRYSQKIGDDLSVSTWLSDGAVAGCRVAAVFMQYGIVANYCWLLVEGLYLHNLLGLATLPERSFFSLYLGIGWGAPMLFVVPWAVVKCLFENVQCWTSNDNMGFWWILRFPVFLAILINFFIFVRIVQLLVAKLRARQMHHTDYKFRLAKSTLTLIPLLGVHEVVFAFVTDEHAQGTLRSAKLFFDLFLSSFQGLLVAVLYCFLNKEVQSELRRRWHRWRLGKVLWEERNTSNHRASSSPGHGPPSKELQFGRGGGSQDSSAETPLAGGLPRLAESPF

Experimental: This plasmid DNA was transfected into 293 HEK cells and selec ted with 200 ug/mL Hygromycin.
Crude plasma membranes are prepared using cells from suspension culture. The cells are lysed on ice in hypotonic buffer containing 25 mM Tris HCL, pH 7.5, 1 mM MgCl2, DNAsel, 20 u/mL, and Roche Complete Inhibitors-without EDTA. The cell suspension is homogenized with a glass dounce homogenizer using a Teflon pestle for 25 strokes. The homogenate is centrifuged at 4° C. at 1800×g for 15 mins. The supernate is collected and the pellet is resuspended in hypotonic buffer and rehomogenized. The mixture is centrifuged at 1800×g for 15 mins. The second supernate is combined with the first supernate. The combined supernates are recentrifuged at 1800×g for 15 mins to clarify. The clarified supernate is transferred to high speed tubes and centrifuged at 25000×g for 30 minutes at 4° C. The membrane pellet is resuspended in homogenization buffer and stored as frozen aliquots at −80° C. freezer until needed.
The specific activity is 2200 Ci/mmol.
The binding buffer contains 25 mM Hepes, pH 7.4, 2.5 mM CaCl2, 1 mM MgCl2, 0.1% fatty acid free BSA, (ICN), 0.003% tween-20, and Roche Complete Inhibitors without EDTA. […] Test compounds are dissolved in DMSO and serially diluted in DMSO. […] Plates are read with a MicroBeta after 14 hours of settling time at room temp. […]

In the case of `CC(Oc1ccc(C(=O)NCCC(=O)O)cc1)c1ccc(-c2ccc(C(F)(F)F)cc2)nc1` (racemic), the pKi is 6.10.
Regarding `CCC(COc1ccc(C(=O)NCCC(=O)O)cc1)c1ccc(-c2ccc(C(F)(F)F)cc2)cc1` (racemic), the pKi is 6.02.
